Results from paper PMC2628307 (Journal of the American Chemical Society, 2008).
Several values for one entry are separate records, joined by “and”; a condition that tells them apart may be missing. Identical values can stand only once. Counter-ions that a name gives are not always drawn. Like-named read-outs stand apart in the source and are kept apart here.

Assays:
[1] = physchem
[2] = biological target: T1, PP1γ (Homo sapiens, UniProt P36873); format: biochemical; conditions: for activity as PP1γ substrate: pH 8
T1 sequence (P36873 whole entry): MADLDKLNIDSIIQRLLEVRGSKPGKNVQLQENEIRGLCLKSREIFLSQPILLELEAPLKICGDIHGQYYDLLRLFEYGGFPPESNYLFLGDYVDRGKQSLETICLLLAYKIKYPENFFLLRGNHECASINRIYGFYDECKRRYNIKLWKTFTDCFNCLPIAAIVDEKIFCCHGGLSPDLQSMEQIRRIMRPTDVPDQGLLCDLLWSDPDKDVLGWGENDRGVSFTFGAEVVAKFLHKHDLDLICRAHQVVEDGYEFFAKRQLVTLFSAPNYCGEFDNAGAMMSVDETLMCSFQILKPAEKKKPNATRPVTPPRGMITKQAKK

[3] = Dianion H2O attack, 95° C; cited from earlier work
[4] = 25 °C; cited from earlier work
[5] = biological target: PP1 (Homo sapiens, UniProt P36873); assay: Kinetic isotope effects of PP1-catalyzed hydrolysis; format: biochemical; conditions: 25 °C, pH 7.0
Sequence of PP1 (Homo sapiens, UniProt P36873) (P36873 whole entry): as above

[6] = tested on: calcineurin; conditions: cited from earlier work
[7] = tested on: native PTPs YopH, VHR, and PTP1; conditions: cited from earlier work
[8] = biological target: PP1 H125A mutant (Homo sapiens, UniProt P36873, H125A); assay: 4NPP hydrolysis by PP1 H125A mutant; format: biochemical
Sequence of PP1 H125A mutant (P36873 2-323 H125A): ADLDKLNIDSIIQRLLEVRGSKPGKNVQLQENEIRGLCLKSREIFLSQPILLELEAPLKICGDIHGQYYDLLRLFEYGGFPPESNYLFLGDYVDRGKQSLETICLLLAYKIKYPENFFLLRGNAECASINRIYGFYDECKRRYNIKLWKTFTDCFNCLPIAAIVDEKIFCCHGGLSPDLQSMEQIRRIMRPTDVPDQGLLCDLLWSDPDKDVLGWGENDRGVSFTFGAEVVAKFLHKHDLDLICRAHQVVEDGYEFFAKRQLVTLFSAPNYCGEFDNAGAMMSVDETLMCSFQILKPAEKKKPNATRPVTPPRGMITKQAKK

[9] = biological target: alkaline phosphatase; conditions: cited from earlier work
[10] = biological target: PP1; conditions: tighter binding peptide substrate; cited from earlier work
[11] = biological target: T1, PP1γ

For O=[N+]([O-])c1ccc(O)cc1 [4-nitro, p-nitrophenol], the pKa [1] was 7.01.

With COP(=O)(O)Oc1ccc([N+](=O)[O-])cc1 [4-nitrophenyl methyl phosphate] the “activity as PP1γ substrate” value [2] was “significant activity”.

For O=[N+]([O-])c1ccc(OS(=O)(=O)O)cc1 [4-nitrophenyl sulfate], the “activity as PP1γ substrate” value [2] was “little activity”.

In the case of O=[N+]([O-])c1ccc(OP(O)(O)=S)cc1 [4-nitrophenyl thiophosphate], the “activity as PP1γ substrate” value [2] is reported as “little activity”.

In the case of O=[N+]([O-])c1ccc(OP(=O)(O)O)cc1 [4NPP, 4-nitrophenyl phosphate], the “^15k” value [3] is listed as 1.0028(2), the “^18knonbridge” value [3] is listed as 0.9994 (5) and the “^18knonbridge per atom” value [3] is listed as 0.9998 (5). The “pseudo-first order rate constant of water reaction of the dianion” value [4] was 2e-09 s⁻¹, the “^18knonbridge” value [5] was 0.9959 (4) and the “^18knonbridge per atom” value [5] was 0.9986 (4). The “^18(V/K)nonbridge” value ([6]; calcineurin with Mg^2+ at the active site) was 0.9910, the “^18(V/K)nonbridge” value ([6]; calcineurin with Mn^+2 at the active site) was 0.9942 and the “change in rate of hydrolysis with viscosigens” value ([2]; 20% sucrose or glycerol) was “no changes”. For the same molecule, the “^15k” value [7] was 0.9999-1.0001, the “^18knonbridge” value [7] was 0.9998-1.0003 and 1.0118-1.0152 and the “^18knonbridge per atom” value [7] was 0.9999-01.0001. The “activity for 4NPP hydrolysis” value [8] was “no detectable activity”.

For O=P(O)(O)O [inorganic phosphate], the Ki [9] is listed as ~1 µM, the Ki [10] is listed as 1600 ± 900 µM and the Ki ([11]; pH 8, 4NPMP hydrolysis, compared with Ki for the 4NPP reaction) is listed as “same Ki”. It also gave a Ki ([11]; pH 8.0, 4NPP hydrolysis, competitive inhibition, equation 2) of 1200 ± 200 µM.
